Reference: patent publication US20230250054A1, “SELECTIVE HISTONE DEACETYLASE 6 INHIBITORS” (The Board of Trustees of the University of Illinois, priority 2020, published 2023)
“Also recorded” adds a separate entry of the source.

Tests used:
[1] = tested on: SM1 murine melanoma cells; experiment: CellTox Green cytotoxicity assay in SM1 cells; type: cell-based; conditions: 24 h
Description: (§1) The SM1 murine melanoma cells were obtained from Dr. A. Ribas at the University of California, Los Angeles. WM164 human melanoma cells were obtained from ATCC. The cells were cultured in an incubator in RPMI 1640, 1% penicillin-streptomycin, and 10% fetal bovine serum at 37° C. with 5% CO2. […] For STAT3 phosphorylation assays, cells were pre-treated with or without HDAC6i (5 μM) for overnight followed by treatment with recombinant human IL-6 (Biolegend) for 20 min. PBS was added as a control. RAW 264.7 macrophages were purchased from ATCC and cultured in DMEM medium supplemented with 10% FBS, 1% non-essential amino acids, and 2-mercaptoethanol (50 μM). RAW macrophages were treated with 1 μM, 5 μM, and 10 μM of Suprastat overnight before collecting the lysates for immunoblot assay. Cytotoxicity assay was performed using CellTox Green (Promega, Cat #G8731) following the manufacturer's instructions, and fluorescence readings were obtained on Spectramax i3 (Molecular Devices) multimode plate reader at wavelengths EX 485 nm and EM 520 nm. SM1 cells were treated with compounds at various concentrations for 24 h to determine cytotoxicity.

IL10 gene = IL10 gene expression by quantitative PCR in bone marrow-derived macrophages; type: cell-based; conditions: mouse bone marrow-derived macrophages, 5 μM, vs vehicle, mRNA quantification
Description: Total RNA was isolated from cells following the manufacturer's instructions of QIAzol (Qiagen, 79306). RNA quantification was done using NanoDrop One spectrophotometer (NanoDrop Technologies). Samples with absorbance at 260/280 ratios over 1.9 were used for cDNA synthesis with iScript cDNA synthesis kit (Bio-Rad, 1708891). Synthesized cDNA from 1 μg of total RNA was diluted 1:10 with nuclease-free water. The quantitative PCR analysis was performed using iQ SYBR Green Supermix (Bio-Rad, 1708882) on CFX96 real-time system (Bio-Rad). Gene expression analysis was performed using 2^−ΔΔCt method, and target mRNA levels were normalized to GAPDH expression. Cycling conditions were used as per manufacturer's instructions. Single PCR product amplification was confirmed by melting curve analysis in all the experiments performed. The sequence of primers used in the analysis are as follows: […]
Immune cells, such as macrophages, are a major cellular component of the tumor microenvironment. Tumor-associated macrophages are often tumor promoting by secreting anti-inflammatory cytokines such as TGFβ and IL-10. It was previously established that HDAC6 forms a complex with STAT3, and either pharmacological inhibition or shRNA mediated knockdown of HDAC6 decreased STAT3 recruitment at the IL10 promoter region in antigen-presenting cells (see, e.g., Cheng et al., J. Immunol. 193: 2850-2862 (2014)). […]

in vitro = conditions: rat, liver microsomes
Ac-α-tubulin [2] = experiment: Immunoblot of Ac-α-tubulin in RAW 264.7 macrophages; type: cell-based; conditions: 1, 5, and 10 μM, overnight, listed as Suprastat
Description: as §1, with “RAW macrophages were treated with 1 μM, 5 μM, and 10 μM of Suprastat overnight before collecting the lysates for immunoblot assay.” left out, “SM1 cells were treated with compounds at various concentrations for 24 h to determine cytotoxicity.” left out
(§2) The cells were harvested and lysed with RIPA buffer (ThermoScientific, 89900) containing protease and phosphatase inhibitors (ThermoScientific, 78440) by sonication in Bioruptor (Diagenode) for 8 cycles of 30 seconds ON and 30 seconds OFF on high setting. To assess the expression of proteins, total protein samples were heat-denatured in SDS sample loading buffer, and 15-20 μg of protein was analysed on 4-20% SDS-PAGE gels (Bio-Rad, 456-1093). […]

SM1 melanoma tumors = experiment: Syngeneic SM1 murine melanoma model, tumor growth; type: in vivo; conditions: C57BL/6 mice with SM1 tumors; Suprastat 25 mg/kg IP, anti-PD1 15 mg/kg IP; vs control (PBS)
Ac—H3 = experiment: Immunoblot of Ac-H3 in WM164 melanoma cells; type: cell-based, human; conditions: 0.1 to 10 μM, overnight
Description: as §1, with “RAW macrophages were treated with 1 μM, 5 μM, and 10 μM of Suprastat overnight before collecting the lysates for immunoblot assay.” left out, “SM1 cells were treated with compounds at various concentrations for 24 h to determine cytotoxicity.” left out
as §2

Ac-α-tubulin [3] = experiment: Immunoblot of Ac-α-tubulin in WM164 melanoma cells; type: cell-based, human; conditions: 0.1 to 10 μM, overnight
Description: as §1, with “RAW macrophages were treated with 1 μM, 5 μM, and 10 μM of Suprastat overnight before collecting the lysates for immunoblot assay.” left out, “SM1 cells were treated with compounds at various concentrations for 24 h to determine cytotoxicity.” left out
as §2

**Q.** With `CCCCN(Cc1ccc(C(=O)NO)cc1)C(=O)Nc1ccc(CN)cc1` [Compound 6b, 4-((3-(4-(Aminomethyl)phenyl)-1-butylureido)methyl)-N-hydroxybenzamide] as the compound, how does the “concentration at which cytotoxicity starts” value [1] read?
**A.** 10 µM

**Q.** Which “expression of IL10 gene” value (IL10 gene) does the source give for `NCc1ccc(NC(=O)N(CCCCO)Cc2ccc(C(=O)NO)cc2)cc1` [Compound 6a, 4-((3-(4-(Aminomethyl)phenyl)-1-(4-hydroxybutyl)ureido)methyl)-N-hydroxybenz-amide] here?
**A.** decreased expression of IL10 gene

**Q.** What about the half-life (in vitro) of the same compound?
**A.** 2.88 h

**Q.** What about the “levels of Ac-α-tubulin in RAW 264.7 macrophages” value (Ac-α-tubulin [2]) of the same compound?
**A.** dose-dependent effect; also recorded: dose-dependent increase in the levels of Ac-α-tubulin

**Q.** And the “tumor burden (tumor volume)” value (SM1 melanoma tumors)?
**A.** reduced the tumor burden

**Q.** What about the “levels of acetylated histone H3 (Ac—H3)” value (Ac—H3) of the same compound?
**A.** slight increase in the levels of Ac—H3

**Q.** What about the “levels of acetylated α-tubulin (Ac-α-tubulin)” value (Ac-α-tubulin [3]) of the same compound?
**A.** highest Ac-α-tubulin level
